Active and inactive are the calls of the source.
Legend:
[1] = Luminescence Cell-Based Dose Retest to Confirm Inhibitors of Cancer Stem Cells. [Related pubchem assays (depositor defined):AID2717, AID2721]; type: functional; conditions: Homo sapiens
Integrin alpha-4 = Integrin alpha-4 (Homo sapiens, UniProt P13612); test: VLA-4 integrin allosteric ligands, SAR follow-up, cell-based, LIBS antibody binding, flow cytometry (AID 488791); type: functional
Melanocortin receptor 4 = Melanocortin receptor 4 (Homo sapiens, UniProt P32245); type: functional, cell-based;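 further: Cell-based assay with luminescence read-out, confirmatory dose-response testing for agonist activity of biased ligands at MC4R; human U2OS cells with tagged receptor and beta-arrestin; potency of agonists that increase receptor coupling to beta-arrestin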
[2] = system: Streptococcus sp. 'group A'; test: growth inhibition of control SK(-) GAS strain, dose response, counter-screen for streptokinase expression inhibitor project, luminescence, kanamycin, BacTiterGlo, confirmation (AID 1900); type: functional, organism-based
Streptokinase A = molecular target: T1, Streptokinase A (Streptococcus pyogenes serotype M1, UniProt P10520); test: S. pyogenes streptokinase expression inhibitors, potency, dose response, plasminogen activation absorbance, OD405 (AID 1914); type: functional, Streptococcus pyogenes M1 GAS;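 further: secreted streptokinase activity via plasminogen activation per viability signal from cell pellet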
T1 sequence (P10520 whole entry): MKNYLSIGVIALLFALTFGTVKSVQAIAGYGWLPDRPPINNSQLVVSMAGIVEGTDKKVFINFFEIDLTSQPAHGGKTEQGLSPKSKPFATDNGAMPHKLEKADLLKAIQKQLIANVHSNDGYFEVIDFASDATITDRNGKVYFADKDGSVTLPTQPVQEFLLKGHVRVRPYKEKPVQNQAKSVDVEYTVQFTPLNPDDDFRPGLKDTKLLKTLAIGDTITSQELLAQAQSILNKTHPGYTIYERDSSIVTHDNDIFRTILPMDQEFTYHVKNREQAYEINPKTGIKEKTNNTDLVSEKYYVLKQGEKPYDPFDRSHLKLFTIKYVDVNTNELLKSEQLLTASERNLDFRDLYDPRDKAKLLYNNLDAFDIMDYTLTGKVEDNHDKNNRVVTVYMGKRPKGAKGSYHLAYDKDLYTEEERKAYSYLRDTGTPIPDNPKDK

[3] = molecular target: G-protein coupled receptor 55 (Homo sapiens, UniProt Q9Y2T6); test: GPR55 antagonists blocking LPI-driven arrestin recruitment, primary screen, imaging, U2OS, beta-arrestin-GFP, LPI agonist (AID 2013); type: functional;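 further: antagonist potency measured as reduced agonist-driven arrestin aggregation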
Streptococcus = test: Group A Streptococcus viability loss, dose response, counter-screen for streptokinase expression inhibitor project, luminescence, BacTiterGlo (AID 1915); type: functional, organism-based;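 further: potency for reduction of bacterial viability or growth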
[4] = molecular target: T2, C-C chemokine receptor type 6 (Homo sapiens, UniProt P51684); test: CCR6 receptor antagonists, dose response, cell-based, luminescent beta-arrestin readout (AID 504728); type: functional
T2 sequence (P51684 whole entry): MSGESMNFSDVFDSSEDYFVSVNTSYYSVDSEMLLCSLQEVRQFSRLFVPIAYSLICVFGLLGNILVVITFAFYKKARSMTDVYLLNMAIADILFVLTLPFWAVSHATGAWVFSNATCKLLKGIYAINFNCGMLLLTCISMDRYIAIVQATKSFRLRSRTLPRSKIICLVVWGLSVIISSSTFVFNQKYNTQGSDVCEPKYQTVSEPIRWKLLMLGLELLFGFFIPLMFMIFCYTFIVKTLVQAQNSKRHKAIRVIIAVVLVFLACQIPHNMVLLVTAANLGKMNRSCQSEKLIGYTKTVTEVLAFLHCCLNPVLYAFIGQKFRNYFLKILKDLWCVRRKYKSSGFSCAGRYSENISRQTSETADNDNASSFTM

[5] = molecular target: T3, Ubiquitin-conjugating enzyme E2 N (Homo sapiens, UniProt P61088); type: functional;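 further: Dose-response confirmation in a TR-FRET assay detecting UBC13-driven polyubiquitin chain formation, inhibition measured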
T3 sequence (P61088 whole entry): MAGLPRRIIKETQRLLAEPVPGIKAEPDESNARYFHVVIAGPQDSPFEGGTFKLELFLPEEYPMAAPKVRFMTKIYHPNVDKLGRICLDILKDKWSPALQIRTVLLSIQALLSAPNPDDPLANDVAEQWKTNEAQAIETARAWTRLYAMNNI

Beta-galactosidase = Beta-galactosidase (Escherichia coli, UniProt Q8VNN2); test: beta-galactosidase enzyme inhibitors and activators, dose response, artefact control for CCR6 antagonist project, biochemical, E. coli enzyme, set 3 (AID 504712); type: functional
H4 = test: Luminescence Cell-Based Dose Response HTS to Identify Activators of 5'UTR Stem-Loop Driven Prion Protein mRNA Translation in H4 Neuroglioblastoma Cells. [Related pubchem assays: 1829 (Project Summary), 1814 (Primary HTS)]; type: functional; conditions: Homo sapiens
Coagulation factor XII = molecular target: T4, Coagulation factor XII (Homo sapiens, UniProt P00748); test: FXIIa inhibitor potency, concentration-response, biochemical (AID 716); type: functional
T4 sequence (P00748 whole entry): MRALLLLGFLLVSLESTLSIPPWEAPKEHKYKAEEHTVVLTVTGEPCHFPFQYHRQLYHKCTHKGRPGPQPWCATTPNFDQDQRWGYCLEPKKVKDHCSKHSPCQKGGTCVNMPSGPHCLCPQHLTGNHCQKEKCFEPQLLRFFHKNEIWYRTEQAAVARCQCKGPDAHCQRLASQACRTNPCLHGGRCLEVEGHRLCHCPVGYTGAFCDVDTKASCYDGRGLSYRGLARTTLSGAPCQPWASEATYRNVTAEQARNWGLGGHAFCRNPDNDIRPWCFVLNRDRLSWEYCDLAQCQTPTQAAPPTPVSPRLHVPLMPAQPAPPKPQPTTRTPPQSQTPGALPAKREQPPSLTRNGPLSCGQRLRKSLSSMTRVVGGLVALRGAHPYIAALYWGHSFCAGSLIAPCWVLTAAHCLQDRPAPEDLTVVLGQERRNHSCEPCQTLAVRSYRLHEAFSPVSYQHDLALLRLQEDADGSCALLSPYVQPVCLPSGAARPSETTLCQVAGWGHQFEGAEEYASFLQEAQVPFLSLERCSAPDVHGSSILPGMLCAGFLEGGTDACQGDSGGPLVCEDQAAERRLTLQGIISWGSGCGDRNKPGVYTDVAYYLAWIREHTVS
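Wherever AC50 is given: cells exposed to compound for roughly 70 hours or longer before luminescence read.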

Sequence of G-protein coupled receptor 55 (Q9Y2T6 whole entry): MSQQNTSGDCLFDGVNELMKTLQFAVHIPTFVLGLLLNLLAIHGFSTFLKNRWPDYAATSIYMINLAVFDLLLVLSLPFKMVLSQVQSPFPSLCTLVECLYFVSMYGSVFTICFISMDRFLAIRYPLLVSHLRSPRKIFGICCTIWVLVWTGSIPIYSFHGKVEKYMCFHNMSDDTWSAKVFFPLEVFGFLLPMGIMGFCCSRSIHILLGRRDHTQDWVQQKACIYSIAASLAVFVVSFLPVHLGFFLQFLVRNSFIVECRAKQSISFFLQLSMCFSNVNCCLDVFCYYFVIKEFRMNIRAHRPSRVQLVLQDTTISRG
Sequence of Beta-galactosidase (Q8VNN2 whole entry): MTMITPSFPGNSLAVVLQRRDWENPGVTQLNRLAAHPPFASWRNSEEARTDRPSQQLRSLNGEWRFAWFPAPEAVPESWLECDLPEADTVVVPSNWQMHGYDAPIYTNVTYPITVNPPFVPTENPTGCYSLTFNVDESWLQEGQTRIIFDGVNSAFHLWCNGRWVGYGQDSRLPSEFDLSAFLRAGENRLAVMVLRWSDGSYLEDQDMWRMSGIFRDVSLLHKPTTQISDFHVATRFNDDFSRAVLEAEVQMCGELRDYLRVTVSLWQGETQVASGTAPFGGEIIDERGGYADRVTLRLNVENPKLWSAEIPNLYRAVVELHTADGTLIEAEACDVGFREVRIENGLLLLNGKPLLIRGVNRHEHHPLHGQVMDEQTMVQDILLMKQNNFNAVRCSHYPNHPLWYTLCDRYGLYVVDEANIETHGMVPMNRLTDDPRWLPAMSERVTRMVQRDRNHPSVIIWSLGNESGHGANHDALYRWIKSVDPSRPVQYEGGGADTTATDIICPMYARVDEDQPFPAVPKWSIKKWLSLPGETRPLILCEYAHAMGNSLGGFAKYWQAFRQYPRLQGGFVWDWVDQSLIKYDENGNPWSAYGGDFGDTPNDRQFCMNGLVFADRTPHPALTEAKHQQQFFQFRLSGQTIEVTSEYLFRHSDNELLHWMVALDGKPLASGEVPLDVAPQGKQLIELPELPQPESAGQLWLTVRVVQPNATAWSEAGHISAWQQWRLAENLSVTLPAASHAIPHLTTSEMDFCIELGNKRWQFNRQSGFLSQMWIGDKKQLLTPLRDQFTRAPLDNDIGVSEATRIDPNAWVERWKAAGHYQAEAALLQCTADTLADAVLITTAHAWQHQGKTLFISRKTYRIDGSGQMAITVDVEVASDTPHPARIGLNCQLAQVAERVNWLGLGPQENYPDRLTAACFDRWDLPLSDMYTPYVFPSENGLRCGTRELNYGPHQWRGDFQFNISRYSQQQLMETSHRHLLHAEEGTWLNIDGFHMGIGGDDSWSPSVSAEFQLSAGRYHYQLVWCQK
Sequence of Integrin alpha-4 (P13612 whole entry): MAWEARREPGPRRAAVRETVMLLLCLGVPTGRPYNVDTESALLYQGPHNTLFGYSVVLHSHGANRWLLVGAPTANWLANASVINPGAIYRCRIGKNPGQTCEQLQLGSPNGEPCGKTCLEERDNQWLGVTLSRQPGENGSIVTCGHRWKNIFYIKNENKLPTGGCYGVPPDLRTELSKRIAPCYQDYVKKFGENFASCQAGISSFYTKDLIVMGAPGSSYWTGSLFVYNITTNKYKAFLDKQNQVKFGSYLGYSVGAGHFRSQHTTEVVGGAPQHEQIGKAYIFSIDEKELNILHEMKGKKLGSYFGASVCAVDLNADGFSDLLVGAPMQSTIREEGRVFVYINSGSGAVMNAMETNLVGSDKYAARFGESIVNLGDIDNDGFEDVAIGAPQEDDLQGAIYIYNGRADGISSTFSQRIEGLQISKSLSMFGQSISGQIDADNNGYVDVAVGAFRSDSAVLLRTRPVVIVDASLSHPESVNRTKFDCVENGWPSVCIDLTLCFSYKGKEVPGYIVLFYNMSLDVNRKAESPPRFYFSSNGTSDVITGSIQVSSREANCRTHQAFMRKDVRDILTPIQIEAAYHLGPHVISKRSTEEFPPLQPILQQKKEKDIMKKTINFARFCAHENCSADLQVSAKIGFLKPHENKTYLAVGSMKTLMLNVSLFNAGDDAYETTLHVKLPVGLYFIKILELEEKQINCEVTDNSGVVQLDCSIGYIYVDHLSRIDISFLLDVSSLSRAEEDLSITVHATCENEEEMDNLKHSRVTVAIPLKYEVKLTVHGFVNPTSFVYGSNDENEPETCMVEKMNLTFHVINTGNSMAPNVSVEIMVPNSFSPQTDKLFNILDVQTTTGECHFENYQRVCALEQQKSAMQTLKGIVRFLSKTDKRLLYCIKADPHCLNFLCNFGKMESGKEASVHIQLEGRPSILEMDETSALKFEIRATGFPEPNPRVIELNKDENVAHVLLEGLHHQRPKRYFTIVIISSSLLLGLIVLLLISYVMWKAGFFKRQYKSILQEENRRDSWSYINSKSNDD
Sequence of Melanocortin receptor 4 (P32245 whole entry): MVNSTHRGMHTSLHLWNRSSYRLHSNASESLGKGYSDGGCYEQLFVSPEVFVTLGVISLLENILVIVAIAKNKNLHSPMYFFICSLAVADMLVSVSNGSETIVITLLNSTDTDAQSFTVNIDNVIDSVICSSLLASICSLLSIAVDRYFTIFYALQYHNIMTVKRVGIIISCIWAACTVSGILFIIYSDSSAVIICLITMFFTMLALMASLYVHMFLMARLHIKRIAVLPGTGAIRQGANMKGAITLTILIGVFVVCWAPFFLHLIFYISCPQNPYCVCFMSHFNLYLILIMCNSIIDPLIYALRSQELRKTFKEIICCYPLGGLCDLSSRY

Structure (SMILES) | AC50 [1] | EC50 (Integrin alpha-4) | EC50 (Melanocortin receptor 4) | EC50 [2] | EC50 (Streptokinase A) | IC50 [3] | EC50 (Streptococcus) | IC50 [4] | IC50 [5] | IC50 (Beta-galactosidase) | EC50 (H4) | IC50 (Coagulation factor XII)
c1ccc(-c2sc3ccccc3c2-c2ccc(OCCN3CCCC3)cc2)cc1 | 2.21 µM (active) | 26.1 µM (active) | > 89.2 µM (inactive) |  |  |  |  |  |  |  |  | 
Cc1c(CCOC(=O)C2C3CC4CC(C3)CC2C4)sc[n+]1CC(=O)c1ccc(Br)cc1 (stereo not drawn) | 2.17 µM (active) |  |  | 8.85 µM (active) | 21.9 µM (active) | 3.25 µM (active) | > 150 µM (not active) | 27 µM (inactive) | > 20 µM (inactive) | > 66.6 µM (inactive) |  | 
COc1ccc(Cn2c(C3CC3)nc3ccc(NC(=O)C4CC4)cc3c2=O)cc1 |  |  |  |  |  |  |  |  |  |  | 0.679 µM (active) | > 50 µM (inactive)
